Assay results as given in patent publication US8415507B2 (priority 2010, dated 2013).

Experiments:
[1] = Relative humidity stability at ambient temperature, analyzed by XRPD; format: physicochemical
Description: Upon completion of the duration allowed, the samples were immediately analyzed by XRPD.

[2] = format: physicochemical
Procedure: Intrinsic dissolution in 900 mL water at ambient conditions was also attempted. […] Therefore, a concentration vs. time and intrinsic dissolution rate value were unobtainable at these conditions.

[3] = in vivo; cited from earlier work
[4] = Lopez-Nicolas 2009; cited from earlier work
[5] = solution supersaturated with respect to pterostilbene; after three days
Procedure: Solubility and concentration measurements were performed using ultraviolet (UV) spectroscopy on a Spectramax Microplate Reader.
Appropriate dilutions with water were made as necessary to maintain absorbance readings within the standard curve. All experiments were repeated three times to evaluate the standard deviation, while particle size was not controlled for any of the experiments.
Aliquots were centrifuged; supernatant was extracted, and appropriate dilutions were made to maintain absorbance readings within the standard curve. […] All experiments were repeated three times to evaluate the standard deviation, while particle size was not controlled for any of the experiments.

## Cn1c(=O)c2c(ncn2C)n(C)c1=O [caffeine, reference compound]
[1]; 75% RH, up to four weeks
  Conversion to hydrate at 75% RH: does not display signs of conversion
[1]; 94% RH
  Time of partial conversion to hydrate at 94% RH: between one and three days
[1]; 98% RH
  Time of conversion to hydrate at 98% RH: less than one day

## pterostilbene:glutaric acid [cocrystal 3]
[2]; 900 mL water at ambient conditions, after 30 minutes
  XRPD result in intrinsic dissolution: crystalline pterostilbene
[2]; slurrying in water at ambient, after 5 minutes
  XRPD result in powder dissolution: crystalline pterostilbene

## COc1cc(/C=C/c2ccc(O)cc2)cc(OC)c1 [pterostilbene, trans-3,5-dimethoxy-4′-hydroxystilbene]
[3]
  Bioavailability: poor bioavailability
[4]
  Solubility in water: poor solubility in water

## COc1cc(/C=C/c2ccc(O)cc2)cc(OC)c1.Cn1c(=O)c2c(ncn2C)n(C)c1=O [cocrystal 1 (Form I), pterostilbene:caffeine]
[1]; additional stress at 98% RH, 1 week (listed after 75% RH, 1 week)
  Results (form by XRPD): cocrystal 1 (Form I), no caffeine hydrate
[1]; additional stress at 98% RH, 4 weeks (listed after 94% RH, 7 days)
  Results (form by XRPD): cocrystal 1 (Form I), no caffeine hydrate
[1]; additional stress at 98% RH, 1 day (listed after 75% RH, 1 day)
  Results (form by XRPD): cocrystal 1 (Form I), no caffeine hydrate
[1]; slurry, 2 days
  Results (form by XRPD): cocrystal 1 (Form I), no caffeine hydrate
[5]
  Outcome of slurrying in water: precipitation of pterostilbene
